Values joined by “and” are separate entries in the source; they are usually repeats but may differ in a detail not shown here. Equal values may be shown once.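 Five compound concentrations were applied to cells in 96-well plates for 48 hours; endpoints were derived by simple linear interpolation of the resulting dose-response curve. At the GI50, growth is halved. Definition used: TGI = concentration required for complete inhibition of growth.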 *1 amine or outer side, *2 acyl side, *3 side chain or, on linkers, in order; H or OH if unused. Where a SMILES comes first, the peptide text is derived from it. Bridges are numbered along the chain shown (N, C = ends). Roman numbers before positions name the chains, in order. [ ]: non-standard residue; d: D form. Actinocin(9to1) = Cc1c2oc3c(C)ccc(C(=O)[*:1])c3nc-2c(C(=O)[*:2])c(N)c1=O; NMeV = CN[CH](C(=O)O)C(C)C; Sar = CNCC(=O)O
Columns and labels:
Test in all cases: inhibition of tumour cell growth, NCI panel, 48 h
SK-OV-3 ovarian = tested on: SK-OV-3 ovarian
TK-10 renal = tested on: TK-10 renal
NCI/ADR-RES ovarian = tested on: NCI/ADR-RES ovarian
NCI-H226 lung = tested on: NCI-H226 lung
HCC-2998 colon = tested on: HCC-2998 colon
NCI-H23 lung = tested on: NCI-H23 lung
OVCAR-5 ovarian = tested on: OVCAR-5 ovarian
SR leukemia = tested on: SR leukemia
EKVX NSCLC = tested on: EKVX NSCLC
SF-295 CNS = tested on: SF-295 CNS

| SMILES | GI50 (SK-OV-3 ovarian) [µM] | TGI (SK-OV-3 ovarian) | GI50 (TK-10 renal) [µM] | TGI (TK-10 renal) | GI50 (NCI/ADR-RES ovarian) | TGI (NCI/ADR-RES ovarian) | GI50 (NCI-H226 lung) [µM] | TGI (NCI-H226 lung) [µM] | GI50 (HCC-2998 colon) [µM] | TGI (HCC-2998 colon) | GI50 (NCI-H23 lung) [µM] | TGI (NCI-H23 lung) [µM] | GI50 (OVCAR-5 ovarian) [µM] | TGI (OVCAR-5 ovarian) [µM] | GI50 (SR leukemia) [µM] | TGI (SR leukemia) | GI50 (EKVX NSCLC) [µM] | TGI (EKVX NSCLC) [µM] | GI50 (SF-295 CNS) [µM] | TGI (SF-295 CNS) |
| --- | --- | --- | --- | --- | --- | --- | --- | --- | --- | --- | --- | --- | --- | --- | --- | --- | --- | --- | --- | --- |
| COc1cc(OC)c(/C=C/C(=O)c2ccc(Nc3ncnc4ccccc34)cc2)c(OC)c1 | 1.02 | 2.74 µM | 1.54 | 3.68 µM | 0.394 µM | 2.55 µM | 1.03 | 3 | 1.94 | 14.2 µM | 0.843 | 11.5 | 1.88 | 5.32 | 0.142 | 1.1 µM | 1.69 | 8.99 | 0.353 | 1.92 µM |
| COc1ccc(C(C#N)=C2C=CC(=NO)C=C2)cc1 | 29.6 | 67.5 µM | 3.87 | 8.72 µM | 3.38 µM | 13.3 µM | 3.97 | 15.2 | 16.1 | 29.7 µM | 12.8 | 26.3 | 19.5 | 34.3 | 3.53 | > 100 µM | 17.6 | 32.7 | 4.8 | 17.1 µM |
| O=C1OCC(c2ccc(O)cc2)=C1c1cc(O)c(O)c(O)c1 |  |  | > 100 | > 100 µM | 25.2 µM | 62.8 µM | > 100 | > 100 |  |  | > 100 | > 100 | 55.6 | > 100 | 20.7 | > 100 µM | > 100 | > 100 | 26.4 | 50.4 µM |
| CC(=O)NNc1nc(C)c(C(/C=C/c2ccc([N+](=O)[O-])cc2)=N/NC(N)=O)s1 |  | > 100 µM |  | > 100 µM |  | > 100 µM |  | > 100 |  | > 100 µM |  | > 100 |  | > 100 |  | > 100 µM |  | > 100 |  | > 100 µM |
| CC(CN1CC(=O)NC(=O)C1)N1CC(=O)NC(=O)C1 (stereo unspecified) |  | > 672 µM |  | > 702 µM |  | > 698 µM |  | 505 |  | > 750 µM |  | > 750 |  | 749 |  | > 750 µM |  | > 750 |  | > 750 µM |
| CCOc1cc(C(=O)O)c2c(ccc3ccc(OC)c(OC)c32)c1OC |  | > 100 µM |  | > 100 µM |  | > 100 µM |  | > 100 |  | > 100 µM |  | > 100 |  | > 100 |  | > 100 µM |  | > 100 |  | > 100 µM |
| Cc1cc(C(=O)Nc2cc(Oc3ccc4nc(NC(=O)C5CC5)cn4n3)ccc2C)n(C)n1 | > 10 | > 10 µM | > 10 | > 10 µM | > 10 µM | > 10 µM | 0.86 | > 10 | > 10 | > 10 µM | > 10 | > 10 | > 10 | > 10 | 2.26 | > 10 µM | > 10 | > 10 | > 10 | > 10 µM |
| O=C1NCN(c2ccccc2)C12CCN(CCCC(c1ccc(F)cc1)c1ccc(F)cc1)CC2 | 4.2 | 14.7 µM | 1.79 | 4.11 µM | 2.85 µM | 10.2 µM | 7.36 | 35.5 | 2.24 | 4.16 µM | 3.31 | 15.2 | 3.76 | 16.4 | 0.704 | 3.74 µM |  |  | 1.5 | 3.1 µM |
| O=C1CSC(c2ccc(-c3nc4ccccc4[nH]3)cc2)=N1 | > 50 | > 50 µM | > 50 | > 50 µM | > 50 µM | > 50 µM |  |  | 16.3 | > 50 µM | 47.4 | > 50 | > 50 | > 50 | 5.7 | > 50 µM | > 50 | > 50 | 29.5 | > 50 µM |
| Cc1c2oc3c(C)ccc(C(=O)OC(C)C4NC(=O)C(C(C)C)N(C)C(=O)CN(C)C(=O)C5CCCN5C(=O)C(C(C)C)NC4=O)c3nc-2c(C(=O)OC(C)C2NC(=O)C(C(C)C)N(C)C(=O)CN(C)C(=O)C3CCCN3C(=O)C(C(C)C)NC2=O)c(N)c1=O (stereo unspecified) (I: cyclo([Sar][NMeV]TVP) / II: cyclo([Sar][NMeV]TVP); linker I:3-II:3 via Actinocin(9to1); configuration not given here) | 0.0192 | > 100 µM | < 0.0127 | 0.894 µM | 0.541 µM | > 100 µM | < 0.01 | 0.0335 |  |  | < 0.01 | 0.0802 | 0.0114 | 21.6 | < 0.01 | > 100 µM | 0.022 |  | < 0.01 | 1.53 µM |
| COC(NC(N)=O)C(=O)O (stereo unspecified) |  | > 100 µM |  | > 100 µM |  | > 100 µM |  | > 100 |  |  |  | > 100 |  | > 100 |  | > 100 µM |  | > 100 |  | > 100 µM |
| C[C@]12CC[C@@H]3c4ccc(O)cc4CC[C@H]3[C@@H]1CC[C@@H]2NS(=O)(=O)c1cccc(Cl)c1 | 3.79 | 12.6 µM | 3.46 | 11.2 µM | 2.39 µM | 8.57 µM | 1.9 | 4.61 | 3.45 | 10.4 µM | 2.72 | 10.8 | 2.59 | 8.54 | 2.15 | 6.6 µM |  |  | 3.1 | 10.8 µM |
| CC(=O)O[C@@]12CO[C@@H]1C[C@H](O)[C@@]1(C)C(=O)[C@H](O)C3=C(C)[C@@H](OC(=O)[C@H](O)[C@@H](NC(=O)OC(C)(C)C)c4ccccc4)C[C@@](O)([C@@H](OC(=O)c4ccccc4)C12)C3(C)C (stereo partly specified) | < 0.005 | 50 µM and 72.6 µM |  | 12.1 µM and > 100 µM | 0.35 µM and 2.05 µM | 2.77 µM and 15.4 µM | 12.8 | > 100 | < 0.005 | 0.00872 µM and 0.0429 µM | < 0.005 | 50 |  | 89.2 | < 0.005 | 46.3 µM and 14.7 µM |  |  | 0.016 | 50 µM and 16.8 µM |
| Cc1c(N)nc([C@H](CC(N)=O)NC[C@H](N)C(N)=O)nc1C(=O)N[C@H](C(=O)N[C@H](C)[C@@H](O)CC(=O)N[C@H](C(=O)NC(O[C@@H]1O[C@@H](C)[C@@H](N)[C@@H](O)[C@H]1O)C(O)c1nc(-c2nc(C(=O)NCCCCN)cs2)cs1)[C@@H](C)O)[C@@H](O[C@@H]1O[C@@H](CO)[C@@H](O)[C@H](O)[C@@H]1O[C@H]1O[C@H](CO)[C@@H](O)[C@H](OC(N)=O)[C@@H]1O)c1c[nH]cn1 (stereo partly specified) |  | > 50 µM |  | > 50 µM |  | > 50 µM |  | > 50 |  | > 50 µM |  | > 50 |  | > 50 |  |  |  | > 50 |  | > 50 µM |
